≈ marks a conversion by molar mass, not a printed value.
Assays:
[1] = tested on: S. aureus VSSA (ATCC 6538); test: MIC, broth microdilution, vancomycin-sensitive S. aureus (VSSA/MSSA, ATCC 6538); format: cell-based, Staphylococcus aureus; details: for MIC: Staphylococcus aureus VSSA, read-out: MIC; for MIC-fold improvement vs. vancomycin: VSSA, ratio of MIC of vancomycin and MIC of analogue
Summary of the method: (§1)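 Serial dilutions in broth, set up per CLSI guidance, gave the MIC. Where noted, test analogues or comparator antibiotics were combined with vancomycin at 10 μM final. Controls: ultrapure water, broth without inoculum.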

MRSA KS1 = test: MIC, broth microdilution, MRSA KS1; format: cell-based, Staphylococcus aureus; details: for MIC-fold improvement vs. vancomycin: MRSA KS1, ratio of MIC of vancomycin and MIC of analogue; for MIC: Staphylococcus aureus MRSA KS1, read-out: MIC
Summary of the method: as §1

E. faecalis VRE 6 = test: MIC, broth microdilution, vancomycin-resistant E. faecalis VRE 6 (VanA); format: cell-based, Enterococcus faecalis; details: for MIC: Enterococcus faecalis VRE 6 (vancomycin-resistant), read-out: MIC; for MIC-fold improvement vs. vancomycin: VRE 6, ratio of MIC of vancomycin and MIC of analogue
Summary of the method: as §1

MRSA KS89 = test: MIC, broth microdilution, MRSA KS89; format: cell-based, Staphylococcus aureus; details: for MIC-fold improvement vs. vancomycin: MRSA KS8, ratio of MIC of vancomycin and MIC of analogue; for MIC: Staphylococcus aureus MRSA KS8, read-out: MIC
Summary of the method: as §1

[2] = tested on: L1210, CEM and HeLa cell lines; test: Cytostatic activity, average or summary over L1210, CEM and HeLa; format: cell-based; details: average of L1210, CEM and HeLa; read-out: Toxicity (IC50) Average
Summary of the method: (§2)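 Readout: Coulter cell number after drug exposure at 37°C. Durations differ by line (L1210 2 days; CEM 3 days; HeLa 4 days). Stock suspension 300,000–500,000 cells/mL, diluted by mixing with compound. Endpoint: IC50 vs negative control.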

S. aureus VRSA = test: MIC, broth microdilution, vancomycin-resistant S. aureus (VRSA); format: cell-based, Staphylococcus aureus; details: for MIC: Staphylococcus aureus VRSA, read-out: MIC; for MIC-fold improvement vs. vancomycin: VRSA, ratio of MIC of vancomycin and MIC of analogue
Summary of the method: as §1

E. faecalis VSE 1 = test: MIC, broth microdilution, vancomycin-sensitive E. faecalis (VSE 1); format: cell-based, Enterococcus faecalis; details: for MIC: Enterococcus faecalis VSE 1 (vancomycin-sensitive), read-out: MIC; for MIC-fold improvement vs. vancomycin: VSE 1, ratio of MIC of vancomycin and MIC of analogue
Summary of the method: as §1

E. faecalis VRE 29 = test: MIC, broth microdilution, vancomycin-resistant E. faecalis VRE 29 (VanA); format: cell-based, Enterococcus faecalis; details: for MIC: Enterococcus faecalis VRE 29 (vancomycin-resistant), read-out: MIC; for MIC-fold improvement vs. vancomycin: VRE 29, ratio of MIC of vancomycin and MIC of analogue
Summary of the method: as §1

E. faecalis VRE 37 = test: MIC, broth microdilution, vancomycin-resistant E. faecalis VRE 37 (VanA); format: cell-based, Enterococcus faecalis; details: for MIC: Enterococcus faecalis VRE 37 (vancomycin-resistant), read-out: MIC; for MIC-fold improvement vs. vancomycin: VRE 37, ratio of MIC of vancomycin and MIC of analogue
Summary of the method: as §1

MRSA KS2 = test: MIC, broth microdilution, MRSA KS2; format: cell-based, Staphylococcus aureus; details: for MIC-fold improvement vs. vancomycin: MRSA KS2, ratio of MIC of vancomycin and MIC of analogue; for MIC: Staphylococcus aureus MRSA KS2, read-out: MIC
Summary of the method: as §1

[3] = tested on: Murine leukemia (L1210) cells; test: Cytostatic activity, L1210 cell proliferation; format: cell-based; details: mean ± SD of three experiments; highest concentration tested 250 µM; 2 days; read-out: Toxicity (IC50) L1210
Summary of the method: as §2

MRSA KS6 = test: MIC, broth microdilution, MRSA KS6; format: cell-based, Staphylococcus aureus; details: for MIC-fold improvement vs. vancomycin: MRSA KS6, ratio of MIC of vancomycin and MIC of analogue; for MIC: Staphylococcus aureus MRSA KS6, read-out: MIC
Summary of the method: as §1

[4] = tested on: human T-lymphocyte (CEM) cells; test: Cytostatic activity, CEM cell proliferation; format: cell-based; details: mean ± SD of three experiments; highest concentration tested 250 µM; 3 days; read-out: Toxicity (IC50) CEM
Summary of the method: as §2

E. faecalis VRE 53 = test: MIC, broth microdilution, vancomycin-resistant E. faecalis VRE 53 (VanA); format: cell-based, Enterococcus faecalis; details: for MIC: Enterococcus faecalis VRE 53 (vancomycin-resistant), read-out: MIC; for MIC-fold improvement vs. vancomycin: VRE 53, ratio of MIC of vancomycin and MIC of analogue
Summary of the method: as §1

[5] = tested on: human cervix carcinoma (HeLa) cells; test: Cytostatic activity, HeLa cell proliferation; format: cell-based; details: mean ± SD of three experiments; highest concentration tested 250 µM; 4 days; read-out: Toxicity (IC50) HeLa
Summary of the method: as §2

S. aureus VISA/HIP5827 = test: MIC, broth microdilution, vancomycin-intermediate S. aureus VISA HIP5827; format: cell-based, Staphylococcus aureus; details: for MIC: Staphylococcus aureus VISA/HIP5827, read-out: MIC; for MIC-fold improvement vs. vancomycin: VISA/HIP5827, ratio of MIC of vancomycin and MIC of analogue
Summary of the method: as §1

Row | Compound | MIC [1] [µM] | MIC-fold improvement vs. vancomycin [1] | MIC-fold improvement vs. vancomycin (MRSA KS1) | MIC (MRSA KS1) [µM] | MIC (E. faecalis VRE 6) [µM] | MIC-fold improvement vs. vancomycin (E. faecalis VRE 6) | MIC-fold improvement vs. vancomycin (MRSA KS89) | MIC (MRSA KS89) [µM] | IC50 [2] [µM] | MIC (S. aureus VRSA) [µM] | MIC-fold improvement vs. vancomycin (S. aureus VRSA) | MIC (E. faecalis VSE 1) [µM] | MIC-fold improvement vs. vancomycin (E. faecalis VSE 1) | MIC (E. faecalis VRE 29) [µM] | MIC-fold improvement vs. vancomycin (E. faecalis VRE 29) | MIC (E. faecalis VRE 37) [µM] | MIC-fold improvement vs. vancomycin (MRSA KS2) | MIC (MRSA KS2) [µM] | IC50 [3] [µM] | MIC-fold improvement vs. vancomycin (MRSA KS6) | further results
1 | CNC(CC(C)C)C(=O)NC1C(=O)NC(CC(N)=O)C(=O)NC2C(=O)NC3C(=O)NC(C(=O)NC(C(=O)NCCCNC(=O)c4ccc5ccccc5n4)c4cc(O)cc(O)c4-c4cc3ccc4O)C(O)c3ccc(c(Cl)c3)Oc3cc2cc(c3OC2OC(CO)C(O)C(O)C2OC2CC(C)(N)C(O)C(C)O2)Oc2ccc(cc2Cl)C1O (stereo not drawn) [Vanc-27] | 0.39 (≈ 0.648 µg/mL) | 2 | 2 | 0.39 (≈ 0.648 µg/mL) | 3.13 (≈ 5.2 µg/mL) | 64 | 1 | 0.78 (≈ 1.3 µg/mL) | 185 | 6.25 (≈ 10.4 µg/mL) | 16 | 0.39 (≈ 0.648 µg/mL) | 4 | 12.5 (≈ 20.8 µg/mL) | 32 | 12.5 (≈ 20.8 µg/mL) | 2 | 0.39 (≈ 0.648 µg/mL) | > 250 | 2 | MIC (MRSA KS6): 0.39 µM (≈ 0.648 µg/mL); IC50 [4]: 229 ± 30 µM; MIC (E. faecalis VRE 53): 25 µM (≈ 41.5 µg/mL); MIC-fold improvement vs. vancomycin (E. faecalis VRE 53): 16; IC50 [5]: 76 ± 8 µM; MIC (S. aureus VISA/HIP5827): 0.39 µM (≈ 0.648 µg/mL); MIC-fold improvement vs. vancomycin (S. aureus VISA/HIP5827): 16
2 | CN[C@H](CC(C)C)C(=O)N[C@H]1C(=O)N[C@@H](CC(N)=O)C(=O)N[C@H]2C(=O)N[C@H]3C(=O)N[C@H](C(=O)N[C@H](C(=O)NCCCNC(=O)c4ccc5ccccc5c4)c4cc(O)cc(O)c4-c4cc3ccc4O)[C@H](O)c3ccc(c(Cl)c3)Oc3cc2cc(c3O[C@@H]2O[C@H](CO)[C@@H](O)[C@H](O)[C@H]2O[C@H]2C[C@](C)(N)[C@H](O)[C@H](C)O2)Oc2ccc(cc2Cl)[C@H]1O [Vanc-28] | 0.39 (≈ 0.647 µg/mL) | 2 | 2 | 0.39 (≈ 0.647 µg/mL) | 3.13 (≈ 5.19 µg/mL) | 64 | 2 | 0.39 (≈ 0.647 µg/mL) | 182 | 3.13 (≈ 5.19 µg/mL) | 32 | 0.20 (≈ 0.332 µg/mL) | 8 | 6.25 (≈ 10.4 µg/mL) | 64 | 12.5 (≈ 20.7 µg/mL) | 4 | 0.20 (≈ 0.332 µg/mL) | > 250 | 4 | MIC (MRSA KS6): 0.20 µM (≈ 0.332 µg/mL); IC50 [4]: 229 ± 12 µM; MIC (E. faecalis VRE 53): 25 µM (≈ 41.5 µg/mL); MIC-fold improvement vs. vancomycin (E. faecalis VRE 53): 16; IC50 [5]: 68 ± 16 µM; MIC (S. aureus VISA/HIP5827): 0.39 µM (≈ 0.647 µg/mL); MIC-fold improvement vs. vancomycin (S. aureus VISA/HIP5827): 16
3 | CNC(CC(C)C)C(=O)NC1C(=O)NC(CC(N)=O)C(=O)NC2C(=O)NC3C(=O)NC(C(=O)NC(C(=O)NCCCNC(=O)c4ccc5cc(O)ccc5c4)c4cc(O)cc(O)c4-c4cc3ccc4O)C(O)c3ccc(c(Cl)c3)Oc3cc2cc(c3OC2OC(CO)C(O)C(O)C2OC2CC(C)(N)C(O)C(C)O2)Oc2ccc(cc2Cl)C1O (stereo not drawn) [Vanc-30] | 0.39 (≈ 0.653 µg/mL) | 2 | 2 | 0.39 (≈ 0.653 µg/mL) | 3.13 (≈ 5.24 µg/mL) | 64 | 2 | 0.39 (≈ 0.653 µg/mL) | 182 | 3.13 (≈ 5.24 µg/mL) | 32 | 0.39 (≈ 0.653 µg/mL) | 4 | 12.5 (≈ 20.9 µg/mL) | 32 | 25 (≈ 41.9 µg/mL) | 2 | 0.39 (≈ 0.653 µg/mL) | > 250 | 2 | MIC-fold improvement vs. vancomycin (E. faecalis VRE 37): 16; MIC (MRSA KS6): 0.39 µM (≈ 0.653 µg/mL); IC50 [4]: > 250 µM; MIC (E. faecalis VRE 53): 25 µM (≈ 41.9 µg/mL); MIC-fold improvement vs. vancomycin (E. faecalis VRE 53): 16; IC50 [5]: 45 ± 25 µM; MIC (S. aureus VISA/HIP5827): 0.39 µM (≈ 0.653 µg/mL); MIC-fold improvement vs. vancomycin (S. aureus VISA/HIP5827): 16
4 | CCCCCCCc1ccc(C(=O)NCCCNC(=O)C2NC(=O)C3NC(=O)C(NC(=O)C4NC(=O)C(CC(N)=O)NC(=O)C(NC(=O)C(CC(C)C)NC)C(O)c5ccc(c(Cl)c5)Oc5cc4cc(c5OC4OC(CO)C(O)C(O)C4OC4CC(C)(N)C(O)C(C)O4)Oc4ccc(cc4Cl)C3O)c3ccc(O)c(c3)-c3c(O)cc(O)cc32)cc1 (stereo not drawn) [Vanc-31] | 0.20 (≈ 0.342 µg/mL) | 4 | 1 | 0.78 (≈ 1.33 µg/mL) | 0.39 (≈ 0.666 µg/mL) | 513 | 4 | 0.20 (≈ 0.342 µg/mL) | 37 | 0.78 (≈ 1.33 µg/mL) | 128 | 0.39 (≈ 0.666 µg/mL) | 4 | 1.56 (≈ 2.66 µg/mL) | 256 | 1.56 (≈ 2.66 µg/mL) | 4 | 0.20 (≈ 0.342 µg/mL) | 8.8 ± 0.6 | 4 | MIC-fold improvement vs. vancomycin (E. faecalis VRE 37): 256; MIC (MRSA KS6): 0.20 µM (≈ 0.342 µg/mL); IC50 [4]: 17 ± 5 µM; MIC (E. faecalis VRE 53): 3.13 µM (≈ 5.35 µg/mL); MIC-fold improvement vs. vancomycin (E. faecalis VRE 53): 128; IC50 [5]: 86 ± 14 µM; MIC (S. aureus VISA/HIP5827): 0.05 µM (≈ 0.0854 µg/mL); MIC-fold improvement vs. vancomycin (S. aureus VISA/HIP5827): 128
5 | CNC(CC(C)C)C(=O)NC1C(=O)NC(CC(N)=O)C(=O)NC2C(=O)NC3C(=O)NC(C(=O)NC(C(=O)NCCCNC(=O)c4ccc(C(F)(F)F)cc4)c4cc(O)cc(O)c4-c4cc3ccc4O)C(O)c3ccc(c(Cl)c3)Oc3cc2cc(c3OC2OC(CO)C(O)C(O)C2OC2CC(C)(N)C(O)C(C)O2)Oc2ccc(cc2Cl)C1O (stereo not drawn) [Vanc-32] | 0.78 (≈ 1.31 µg/mL) | 1 | 2 | 0.39 (≈ 0.654 µg/mL) | 3.13 (≈ 5.25 µg/mL) | 64 | 2 | 0.39 (≈ 0.654 µg/mL) | 157 | 6.25 (≈ 10.5 µg/mL) | 16 | 0.39 (≈ 0.654 µg/mL) | 4 | 12.5 (≈ 21 µg/mL) | 32 | 25 (≈ 41.9 µg/mL) | 2 | 0.39 (≈ 0.654 µg/mL) | 164 ± 46 | 2 | MIC-fold improvement vs. vancomycin (E. faecalis VRE 37): 16; MIC (MRSA KS6): 0.39 µM (≈ 0.654 µg/mL); IC50 [4]: 200 ± 12 µM; MIC (E. faecalis VRE 53): 50 µM (≈ 83.9 µg/mL); MIC-fold improvement vs. vancomycin (E. faecalis VRE 53): 8; IC50 [5]: 106 ± 2 µM; MIC (S. aureus VISA/HIP5827): 0.78 µM (≈ 1.31 µg/mL); MIC-fold improvement vs. vancomycin (S. aureus VISA/HIP5827): 8
